In BindingDB's records for patent US20240076297 (Merck Sharp & Dohme, 2024) one finds IC50 data, which are given here for one molecule.

One assay addresses Adenosine receptor A2a (Homo sapiens, UniProt P29274). Briefly: Measurement of A2A or A2B Binding Affinity Using Radioligand Binding. As for the experimental part:
(§1) Method (A): 148 μL (5 μg/mL) membranes (Perkin Elmer, Cat. No. RBHA2aM400UA) and 2 μL compounds of the invention to be tested (test compound) were transferred to individual wells of a 96-well polypropylene assay plate and incubated for 15 to 30 min at room temperature. [3H] SCH58261 ((7-(2-phenylethyl)-5-amino-2-(2-furyl)-pyrazolo-[4,3-e]-1,2,4-triazolo[1,5-c]pyrimidine)) was diluted in assay buffer (50 mM Tris pH 7.4, 10 mM MgCl2, 0.005% Tween20) to a concentration of 4 nM and 50 μL transferred to each well of the assay plate. To define total and non-specific binding, wells containing 1% DMSO and 1 μM ZM241385 (Tocris Bioscience, Cat. No. 1036) respectively, were also included. The assay plate was incubated at room temperature for 60 min with agitation. […] The plate was incubated for at least 20 min, and then the amount of radioactivity remaining in each well was determined using a TopCount (Perkin Elmer) scintillation counter. After normalization to total and non-specific binding, the percent effect at each compound concentration was calculated. The plot of percent effect versus the log of compound concentration was analyzed electronically using a 4-parameter logistic fit based on the Levenberg-Marquardt algorithm to generate IC50 values.

Another assay has as its target T1, Adenosine receptor A2b (Homo sapiens, UniProt P29275).
T1 sequence (P29275 whole entry): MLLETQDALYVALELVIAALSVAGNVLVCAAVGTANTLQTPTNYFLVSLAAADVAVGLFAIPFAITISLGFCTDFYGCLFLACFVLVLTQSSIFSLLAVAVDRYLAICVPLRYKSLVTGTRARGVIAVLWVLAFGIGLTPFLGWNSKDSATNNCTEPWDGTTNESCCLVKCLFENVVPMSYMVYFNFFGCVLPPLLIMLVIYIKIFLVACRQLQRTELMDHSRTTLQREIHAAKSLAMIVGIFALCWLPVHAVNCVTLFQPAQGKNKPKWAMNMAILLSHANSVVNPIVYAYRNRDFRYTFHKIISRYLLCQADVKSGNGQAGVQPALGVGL
Described as above. As for the experimental part:
as §1

Chain of Adenosine receptor A2a (P29274 whole entry): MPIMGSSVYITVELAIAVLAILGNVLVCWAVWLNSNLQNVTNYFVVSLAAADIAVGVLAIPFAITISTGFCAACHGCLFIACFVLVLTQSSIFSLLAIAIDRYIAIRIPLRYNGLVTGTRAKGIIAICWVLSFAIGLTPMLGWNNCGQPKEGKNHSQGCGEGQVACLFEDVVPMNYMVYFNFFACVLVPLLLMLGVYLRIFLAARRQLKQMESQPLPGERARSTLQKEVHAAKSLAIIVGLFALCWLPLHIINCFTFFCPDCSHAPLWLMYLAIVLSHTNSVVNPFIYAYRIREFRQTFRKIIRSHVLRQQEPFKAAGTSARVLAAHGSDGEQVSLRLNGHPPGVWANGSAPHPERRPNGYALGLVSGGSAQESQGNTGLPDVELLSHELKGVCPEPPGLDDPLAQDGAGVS

One may read the IC50 as the concentration needed to halve the response being measured. Higher therefore signals weaker potency in that assay. Regarding `COc1cccc2c1nc(N)n1nc(CCS(=O)(=O)C(F)(F)F)nc21` [US20240076297, Example 13.5], the IC50 worked out at 10.9 nM on Adenosine receptor A2a and 81.3 nM on Adenosine receptor A2b.
